# Assay results taken from patent US12686652B2, “Methods of increasing irrigation water and fertilizer delivery to soil using formic acid and formate salts, making a formate salt from carbon dioxide, and generating a carbon credit” (Deerpoint Group, Inc., priority 2023, dated 2026).
# Where “and” joins values, the source holds several entries; their conditions need not be identical. Identical values can stand only once. Like-named read-outs stand apart in the source and are kept apart here.
# Key:
# [1] = first farm soil, duplicate columns A and B
# [2] = From the text: The irrigation water at the second farm was from a different source than the first farm.
# [3] = for Liquid Eluted after 60 min / Liquid Eluted after 120 min / Time (50 g of liquid, in min) / Liquid Eluted after 240 min: Ca formate 22 ppm by moles, average of two columns; for Liquid Eluted after 60 min / Liquid Eluted after 120 min / Time (50 g of liquid, in min): HCO2H 0.33% by weight
# From the text: The objective was to investigate the behavior of different irrigation water treatments and determine the relative amounts of water that passed through the soil columns. The column retention times reflect the rate at which the liquid passes through the soil. Understanding these retention times provides insights about the transport and movement of irrigation water (and any fertilizers dissolved therein) through the soil, which has implications for the volume of water passing into and through the root zone, nutrient availability to crops, leaching of contaminants, and overall soil health.
# The data in Table 1 is for the average of the two soil samples.
# [4] = ICP and flow injection (FIA) analyses of solutions passed through soil columns, second farm; settings: single soil sample
# [5] = cited from earlier work
# [6] = first pass, dry soil, second farm (FIG. 3)
# [7] = 1st pass, Alternating = formic acid pass
# [8] = 2nd pass, Alternating = calcium formate pass
# [9] = 3rd pass, Alternating = formic acid pass
# [10] = 4th pass, Alternating = calcium formate pass
# 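Wherever Mn in solution passed through soil column (ICP) is given: eluate from PVC columns holding 100 g of dry ground farm soil, analysed by ICP-OES for element content after the solution had drained through, irrigation water measured as received for reference.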
smiles,measurement,setting,value
"O=C[O-].O=C[O-].[Ca+2] [Ca formate, calcium formate]",B in solution passed through soil column (ICP),[1]; 1st pass,4.35 ppm and 4.97 ppm
same,Ca in solution passed through soil column (ICP),[1]; 1st pass,135.1 ppm and 142.4 ppm
same,K in solution passed through soil column (ICP),[1]; 1st pass,10.81 ppm and 11.82 ppm
same,Mg in solution passed through soil column (ICP),[1]; 1st pass,53.6 ppm and 56.4 ppm
same,Mn in solution passed through soil column (ICP),[1]; 1st pass,1.95 ppm and 2.09 ppm
same,Na in solution passed through soil column (ICP),[1]; 1st pass,82.3 ppm and 88.9 ppm
same,P in solution passed through soil column (ICP),[1]; 1st pass,0.45 ppm and 0.36 ppm
same,S in solution passed through soil column (ICP),[1]; 1st pass,99.1 ppm and 103.0 ppm
same,Si in solution passed through soil column (ICP),[1]; 1st pass,26.5 ppm and 27.6 ppm
same,B in solution passed through soil column (ICP),[1]; 2nd pass,2.41 ppm and 2.40 ppm
same,Ca in solution passed through soil column (ICP),[1]; 2nd pass,26.6 ppm and 25.2 ppm
same,K in solution passed through soil column (ICP),[1]; 2nd pass,5.69 ppm and 5.73 ppm
same,Mg in solution passed through soil column (ICP),[1]; 2nd pass,10.4 ppm and 9.8 ppm
same,Mn in solution passed through soil column (ICP),[1]; 2nd pass,0.19 ppm and 0.22 ppm
same,Na in solution passed through soil column (ICP),[1]; 2nd pass,36.8 ppm and 38.2 ppm
same,P in solution passed through soil column (ICP),[1]; 2nd pass,0.40 ppm and 0.41 ppm
same,S in solution passed through soil column (ICP),[1]; 2nd pass,21.2 ppm and 19.6 ppm
same,Si in solution passed through soil column (ICP),[1]; 2nd pass,25.2 ppm and 26.2 ppm
same,B in solution passed through soil column (ICP),[1]; 3rd pass,1.74 ppm and 1.48 ppm
same,Ca in solution passed through soil column (ICP),[1]; 3rd pass,21.1 ppm and 19.4 ppm
same,K in solution passed through soil column (ICP),[1]; 3rd pass,6.01 ppm and 5.41 ppm
same,Mg in solution passed through soil column (ICP),[1]; 3rd pass,8.2 ppm and 7.6 ppm
same,Na in solution passed through soil column (ICP),[1]; 3rd pass,32.7 ppm and 31.1 ppm
same,P in solution passed through soil column (ICP),[1]; 3rd pass,0.68 ppm and 0.58 ppm
same,S in solution passed through soil column (ICP),[1]; 3rd pass,13.9 ppm and 13.0 ppm
same,Si in solution passed through soil column (ICP),[1]; 3rd pass,28.4 ppm and 26.2 ppm
same,B in solution passed through soil column (ICP),[1]; 4th pass,0.69 ppm and 0.73 ppm
same,Ca in solution passed through soil column (ICP),[1]; 4th pass,15.0 ppm and 15.9 ppm
same,K in solution passed through soil column (ICP),[1]; 4th pass,5.09 ppm and 5.06 ppm
same,Mg in solution passed through soil column (ICP),[1]; 4th pass,5.9 ppm and 6.0 ppm
same,Mn in solution passed through soil column (ICP),[1]; 4th pass,0.05 ppm and 0.04 ppm
same,Na in solution passed through soil column (ICP),[1]; 4th pass,21.6 ppm and 22.9 ppm
same,P in solution passed through soil column (ICP),[1]; 4th pass,0.56 ppm
same,S in solution passed through soil column (ICP),[1]; 4th pass,5.3 ppm and 5.5 ppm
same,Si in solution passed through soil column (ICP),[1]; 4th pass,22.3 ppm and 22.7 ppm
same,Liquid retained by the soil samples on average,[2]; [6],43 to 44 mL
same,Time at which solution had completed passing through the soil column on average,[2]; [6],about 240 minutes
same,Time of first appearance of liquid from the columns on average,[2]; [6],20 to 30 min
same,Amount of liquid passed through the columns compared with irrigation water at the same lengths of time,"[2]; first pass, second farm, from 20-30 minutes up to 240 minutes",more than three times as much
same,Time at which solution had completed passing through the soil column on average,"[2]; second pass, wet/damp soil, second farm (FIG. 4)",about 390 minutes
same,"Drainage Rate: Time (50 g), percentage relative to irrigation water","[3]; 1st pass, first farm soil",66.7%
same,"Drainage Rate: liquid eluted at 60 mins, percentage relative to irrigation water","[3]; 1st pass, first farm soil",180%
same,"Drainage Rate: liquid eluted at 120 mins, percentage relative to irrigation water","[3]; 1st pass, first farm soil",152%
same,Liquid Eluted after 60 min,"[3]; 1st pass, first farm soil",28.6 g
same,Liquid Eluted after 120 min,"[3]; 1st pass, first farm soil",53.9 g
same,"Time (50 g of liquid, in min)","[3]; 1st pass, first farm soil",120 min
same,"Drainage Rate: Time (50 g), percentage relative to irrigation water","[3]; 2nd pass, first farm soil",66.7%
same,"Drainage Rate: liquid eluted at 60 mins, percentage relative to irrigation water","[3]; 2nd pass, first farm soil",157%
same,"Drainage Rate: liquid eluted at 120 mins, percentage relative to irrigation water","[3]; 2nd pass, first farm soil",150%
same,"Drainage Rate: liquid eluted at 240 min, percentage relative to irrigation water","[3]; 2nd pass, first farm soil",137%
same,Liquid Eluted after 60 min,"[3]; 2nd pass, first farm soil",33.3 g
same,Liquid Eluted after 120 min,"[3]; 2nd pass, first farm soil",59.9 g
same,"Time (50 g of liquid, in min)","[3]; 2nd pass, first farm soil",120 min
same,Liquid Eluted after 240 min,"[3]; 2nd pass, first farm soil",98.5 g
same,"Drainage Rate: Time (50 g), percentage relative to irrigation water","[3]; 3rd pass, first farm soil",83.3%
same,"Drainage Rate: liquid eluted at 60 mins, percentage relative to irrigation water","[3]; 3rd pass, first farm soil",138%
same,"Drainage Rate: liquid eluted at 120 mins, percentage relative to irrigation water","[3]; 3rd pass, first farm soil",135%
same,"Drainage Rate: liquid eluted at 240 min, percentage relative to irrigation water","[3]; 3rd pass, first farm soil",131%
same,Liquid Eluted after 60 min,"[3]; 3rd pass, first farm soil",26.4 g
same,Liquid Eluted after 120 min,"[3]; 3rd pass, first farm soil",48.8 g
same,"Time (50 g of liquid, in min)","[3]; 3rd pass, first farm soil",150 min
same,Liquid Eluted after 240 min,"[3]; 3rd pass, first farm soil",86.7 g
same,"Drainage Rate: Time (50 g), percentage relative to irrigation water","[3]; 4th pass, first farm soil",83.3%
same,"Drainage Rate: liquid eluted at 60 mins, percentage relative to irrigation water","[3]; 4th pass, first farm soil",123%
same,"Drainage Rate: liquid eluted at 120 mins, percentage relative to irrigation water","[3]; 4th pass, first farm soil",118%
same,"Drainage Rate: liquid eluted at 240 min, percentage relative to irrigation water","[3]; 4th pass, first farm soil",110%
same,Liquid Eluted after 60 min,"[3]; 4th pass, first farm soil",24.1 g
same,Liquid Eluted after 120 min,"[3]; 4th pass, first farm soil",44.6 g
same,"Time (50 g of liquid, in min)","[3]; 4th pass, first farm soil",150 min
same,Liquid Eluted after 240 min,"[3]; 4th pass, first farm soil",75.0 g
same,Liquid retained by the soil samples on average,"[3]; first pass, dry soil, first farm, 100 ml added (FIG. 1)",about 36 ml
same,Improvement in amount of liquid eluted compared to the irrigation water,"[3]; fixed periods 60, 120 and 240 mins, first farm soil",110-180%
same,B in solution passed through soil column (ICP),[4]; [7],0.5 ppm
same,Ca in solution passed through soil column (ICP),[4]; [7],76.1 ppm
same,Cl^− in solution passed through soil column (FIA),[4]; [7],288.0 ppm
same,K in solution passed through soil column (ICP),[4]; [7],4.5 ppm
same,Mg in solution passed through soil column (ICP),[4]; [7],19.6 ppm
same,NO3^− in solution passed through soil column (FIA),[4]; [7],0.0 ppm
same,Na in solution passed through soil column (ICP),[4]; [7],169.0 ppm
same,P in solution passed through soil column (ICP),[4]; [7],1.0 ppm
same,S in solution passed through soil column (ICP),[4]; [7],51.4 ppm
same,Si in solution passed through soil column (ICP),[4]; [7],26.3 ppm
same,B in solution passed through soil column (ICP),[4]; [8],0.3 ppm
same,Ca in solution passed through soil column (ICP),[4]; [8],24.0 ppm
same,Cl^− in solution passed through soil column (FIA),[4]; [8],92.1 ppm
same,K in solution passed through soil column (ICP),[4]; [8],2.5 ppm
same,Mg in solution passed through soil column (ICP),[4]; [8],6.1 ppm
same,NO3^− in solution passed through soil column (FIA),[4]; [8],0.0 ppm
same,Na in solution passed through soil column (ICP),[4]; [8],110.4 ppm
same,P in solution passed through soil column (ICP),[4]; [8],1.1 ppm
same,S in solution passed through soil column (ICP),[4]; [8],14.8 ppm
same,Si in solution passed through soil column (ICP),[4]; [8],26.9 ppm
same,B in solution passed through soil column (ICP),[4]; [9],0.2 ppm
same,Ca in solution passed through soil column (ICP),[4]; [9],21.7 ppm
same,Cl^− in solution passed through soil column (FIA),[4]; [9],91.9 ppm
same,K in solution passed through soil column (ICP),[4]; [9],2.4 ppm
same,Mg in solution passed through soil column (ICP),[4]; [9],5.5 ppm
same,NO3^− in solution passed through soil column (FIA),[4]; [9],0.0 ppm
same,Na in solution passed through soil column (ICP),[4]; [9],96.4 ppm
same,P in solution passed through soil column (ICP),[4]; [9],1.0 ppm
same,S in solution passed through soil column (ICP),[4]; [9],10.3 ppm
same,Si in solution passed through soil column (ICP),[4]; [9],24.3 ppm
same,B in solution passed through soil column (ICP),[4]; [10],0.2 ppm
same,Ca in solution passed through soil column (ICP),[4]; [10],30.4 ppm
same,Cl^− in solution passed through soil column (FIA),[4]; [10],93.6 ppm
same,K in solution passed through soil column (ICP),[4]; [10],2.4 ppm
same,Mg in solution passed through soil column (ICP),[4]; [10],7.5 ppm
same,NO3^− in solution passed through soil column (FIA),[4]; [10],0.0 ppm
same,Na in solution passed through soil column (ICP),[4]; [10],95.4 ppm
same,P in solution passed through soil column (ICP),[4]; [10],0.9 ppm
same,S in solution passed through soil column (ICP),[4]; [10],10.1 ppm
same,Si in solution passed through soil column (ICP),[4]; [10],23.3 ppm
[Fe+2] [Fe^+2],Solubility with anion CO3^−2,[5],"VSS (VSS means very slightly soluble (20-2,000 ppm))"
same,Solubility with anion CO3^−2,[5]; listed as Fe^+3,I (I means insoluble (<20 ppm))
same,Solubility with anion Cl^−,[5]; anion Cl^−,"S (S means soluble (over 5,000 ppm))"
same,Solubility with anion HCO3^−,[5],"SS (SS means slightly soluble (2,000 to 5,000 ppm))"
same,Solubility with anion HCO3^−,[5]; listed as Fe^+3,I (I means insoluble (<20 ppm))
same,Solubility with anion NO3^−,[5]; anion NO3^−,"S (S means soluble (over 5,000 ppm))"
same,Solubility with anion OH^−,[5],"VSS (VSS means very slightly soluble (20-2,000 ppm))"
same,Solubility with anion OH^−,[5]; listed as Fe^+3,I (I means insoluble (<20 ppm))
same,Solubility with anion PO4^−3,[5]; anion PO4^−3,I (I means insoluble (<20 ppm))
same,Solubility with anion SO4^−2,[5]; anion SO4^−2,"S (S means soluble (over 5,000 ppm))"
same,Solubility with anion S^−2,[5]; anion S^−2,I (I means insoluble (<20 ppm))
